pIC50: −log10 of the molar value.
Tests used:
PDE4B2 [1] = target: T1, PDE4B2 (Homo sapiens, UniProt Q07343); assay: PDE4B2 enzyme experiment (AMP-glo, cAMP substrate); format: biochemical; settings: for inhibition at 0.01 µM: read-out: PDE4B2 Enzyme Inhibition% @10 nM; for inhibition at 0.1 µM: read-out: PDE4B2 Enzyme Inhibition% @100 nM
T1 construct: expressed in transfected cells; host or cells: Flp-In-293 (Flpin-293-PDE4B2 [sic])

PDE4B2 [2] = target: T1, PDE4B2; assay: PDE4B2 cell experiment (cAMP, Eu-cAMP tracer / Ulight-anti-cAMP); format: cell-based; settings: Flpin-293-PDE4B2 cells; for inhibition at 0.01 µM / Cell Inhibition% @10 nM: 10 nM; for inhibition at 0.1 µM / Cell Inhibition% @100 nM: 100 nM; for pIC50: Foskolin; for Cell Inhibition% @1 nM / inhibition at 0.001 µM: 1 nM
Experimental: All compounds were dissolved in DMSO into 10 mM or 20 mM stock solutions. The compound to be tested was diluted with DMSO with a 3-fold gradient. […] 40 nL/well of the compound or a DMSO control was transferred to a 384-well plate by using Echo 550 instrument. […] The plate was incubated at 37°C for 30 minutes. Eu-cAMP tracer and Ulight-anti-cAMP were frozen and thawed and diluted in a lysis buffer. 10 of µl Eu-cAMP tracer was added to an experimental well, and 10 µl of Ulight-anti-cAMP was added to the experimental well. The reaction plate was centrifuged at 200 g at room temperature for 30 s and then left to stand at 25°C for 1 h, and data was then collected by Envision. Inhibition % = 100 - (Signal compound - SignalAve positive control)/(SignalAve negative control - SignalAve positive control) × 100. Graphpad 8.0 software was then used to obtain an IC50 value by calculation using Y = Bottom + (Top - Bottom)/(1 + 10^((LogIC50 - X) * HillSlope)).

T1 sequence (Q07343 1-564 isoform Q07343-2): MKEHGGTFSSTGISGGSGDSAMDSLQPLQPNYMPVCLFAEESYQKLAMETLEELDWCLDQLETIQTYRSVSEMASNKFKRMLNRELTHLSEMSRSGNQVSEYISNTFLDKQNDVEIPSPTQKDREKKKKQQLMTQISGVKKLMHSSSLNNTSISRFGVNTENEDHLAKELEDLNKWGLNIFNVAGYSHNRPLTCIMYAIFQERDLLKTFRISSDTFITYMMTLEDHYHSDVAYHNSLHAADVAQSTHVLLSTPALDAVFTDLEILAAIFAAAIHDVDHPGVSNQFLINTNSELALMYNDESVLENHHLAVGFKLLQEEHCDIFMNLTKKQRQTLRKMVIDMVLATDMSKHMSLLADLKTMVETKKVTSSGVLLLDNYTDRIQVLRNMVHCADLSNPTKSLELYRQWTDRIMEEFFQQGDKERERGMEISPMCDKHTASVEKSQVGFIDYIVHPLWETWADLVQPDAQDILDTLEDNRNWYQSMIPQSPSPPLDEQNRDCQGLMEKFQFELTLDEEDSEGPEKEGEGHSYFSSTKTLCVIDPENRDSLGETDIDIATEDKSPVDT

| SMILES | pIC50 (PDE4B2 [1]) | Cell Inhibition% @10 nM (PDE4B2 [2]) [%] | Cell Inhibition% @100 nM (PDE4B2 [2]) [%] | Cell Inhibition% @1 nM (PDE4B2 [2]) [%] | also measured |
| --- | --- | --- | --- | --- | --- |
| [O-][S@@+]1CCc2nc(N3CCc4nn5cc(Cl)cnc5c4C3)nc(NC3(CO)CCC3)c21 [Compound 3] | 6.03 |  |  |  |  |
| [O-][S@+]1CCc2nc(N3Cc4nc5cc(Cl)ccn5c4C3)nc(NC3(CO)CCC3)c21 [Compound 8, (R)-2-(6-chloro-1,3-dihydro-2H-pyrrolo[3',4':4,5]imidazo[1,2-a]pyridin-2-yl)-4-((1-(hydroxymethyl)cyclobutyl)amino)-6,7-dihydrothieno[3,2-d]pyrimidine 5-oxide] |  |  |  |  | inhibition at 0.01 µM (PDE4B2 [2]): 3.5%; inhibition at 0.1 µM (PDE4B2 [2]): 15.1%; inhibition at 0.01 µM (PDE4B2 [1]): 45%; inhibition at 0.1 µM (PDE4B2 [1]): 94.1% |
| [O-][S+]1CCc2nc(N3CCc4c(nn5cccc(Cl)c45)C3)nc(NC3(CO)CCC3)c21 (centres unmarked) [Compound 10] | 8.64 |  |  |  | pIC50 (PDE4B2 [2]): 7.13 |
| [O-][S@+]1CCc2nc(N3CC[C@@H]4c5ccc(Cl)cc5CC[C@@H]4C3)nc(NC3(CO)CCC3)c21 [Compound 12, (R)-2-((4aS,10bS)-8-chloro-1,4,4a,5,6,10-hexahydrobenzo[f]isoquinolin-3(2H)-yl)-4-((1-(hydroxymethyl)cyclobutyl)amino)-6,7-dihydrothieno[3,2-d]pyrimidine 5-oxide] | 7.81 |  |  |  | inhibition at 0.01 µM (PDE4B2 [2]): 16%; inhibition at 0.1 µM (PDE4B2 [2]): 7.46% |
| [O-][S@+]1CCc2nc(N3CC[C@H]4c5ccc(Cl)cc5OC[C@@H]4C3)nc(NC3(CO)CCC3)c21 [Compound 13, (R)-2-((4aS,10bR)-8-chloro-1,4a,5,10b-tetrahydro-2H-chromeno[3,4-c]pyridin-3(4H)-yl)-4-((1-(hydroxymethyl)cyclobutyl)amino)-6,7-dihydrothieno[3,2-d]pyrimidine 5-oxide] | 8.19 |  |  |  | pIC50 (PDE4B2 [2]): 6.25 |
| [O-][S+]1CCc2nc(N3CCc4scnc4C3)nc(NC3(CO)CCC3)c21 (centres unmarked) [Compound 17] | 6.33 |  |  |  |  |
| [O-][S+]1CCc2nc(N3CCc4c(Cl)cccc4C3)nc(NC3(CO)CCC3)c21 (centres unmarked) [Compound 19] | 8.14 |  |  |  | pIC50 (PDE4B2 [2]): 6.69 |
| [O-][S+]1CCc2nc(N3CCc4ccc(Cl)cc4C3)nc(NC3(CO)CCC3)c21 (centres unmarked) [Compound 20] | 8.73 | 14.18 | 69.92 |  |  |
| [O-][S+]1CCc2nc(N3CCc4cccc(Cl)c4C3)nc(NC3(CO)CCC3)c21 (centres unmarked) [Compound 21] | 8.68 | 18.76 | 79.24 |  |  |
| [O-][S+]1CCc2nc(N3CCc4cc(F)ccc4C3)nc(NC3(CO)CCC3)c21 (centres unmarked) [Compound 23] | 8.55 |  |  |  | pIC50 (PDE4B2 [2]): 7.54 |
| C[C@H]1c2ccc(Cl)cc2CCN1c1nc2c(c(NC3(CO)CCC3)n1)[S@+]([O-])CC2 [Compound 28, (R)-2-((S)-6-chloro-1-methyl-3,4-dihydroisoquinolin-2(1H)-yl)-4-((1-(hydroxymethyl)cyclobutyl)amino)-6,7-dihydrothieno[3,2-d]pyrimidine 5-oxide] | 9.17 |  |  |  | pIC50 (PDE4B2 [2]): 7.44 |
| Cn1cc2c(n1)CN(c1nc3c(c(NC4(CO)CCC4)n1)[S+]([O-])CC3)CC2 (centres unmarked) [Compound 30] |  | 11.30 | 48.00 |  |  |
| Cn1cc2c(n1)CCN(c1nc3c(c(NC4(CO)CCC4)n1)[S+]([O-])CC3)C2 (centres unmarked) [Compound 31] | 8.13 |  |  |  |  |
| [O-][S+]1CCc2nc(N3Cc4ccc(Cl)cc4C3)nc(NC3(CO)CCC3)c21 (centres unmarked) [Compound 33] |  | 9 | 33.2 |  | PDE4B2 Enzyme Inhibition% @10 nM (PDE4B2 [1]): 72.33%; PDE4B2 Enzyme Inhibition% @100 nM (PDE4B2 [1]): 98.64% |
| [O-][S+]1CCc2nc(N3CCc4ccc(Cl)cc4CC3)nc(NC3(CO)CCC3)c21 (centres unmarked) [Compound 34] | 8.71 | 14 | 62 |  |  |
| [O-][S+]1CCc2nc(N3CCc4ccsc4C3)nc(NC3(CO)CCC3)c21 (centres unmarked) [Compound 36] |  | 18.10 | 66.60 |  | PDE4B2 Enzyme Inhibition% @10 nM (PDE4B2 [1]): 74.54%; PDE4B2 Enzyme Inhibition% @100 nM (PDE4B2 [1]): 99.04% |
| [O-][S+]1CCc2nc(N3CCc4sccc4C3)nc(NC3(CO)CCC3)c21 (centres unmarked) [Compound 37] | 8.52 |  |  |  | pIC50 (PDE4B2 [2]): 7.05 |
| [O-][S@+]1CCc2nc(N3CCc4c(Br)csc4C3)nc(NC3(CO)CCC3)c21 [Compound 54, (R)-2-(3-bromo-4,7-dihydrothieno[2,3-c]pyridin-6(5H)-yl)-4-((1-(hydroxymethyl)cyclobutyl)amino)-6,7-dihydrothieno[3,2-d]pyrimidine 5-oxide] |  |  |  |  | inhibition at 0.001 µM (PDE4B2 [1]; read-out: PDE4B2 Enzyme Inhibition% @1 nM): 9.28%; inhibition at 0.01 µM (PDE4B2 [1]): 58.9%; inhibition at 0.1 µM (PDE4B2 [1]): 96.6% |
| [O-][S+]1CCc2nc(N3CCc4cc(-c5ncco5)ccc4C3)nc(NC3(CO)CCC3)c21 (centres unmarked) [Compound 84] |  | 96.96 | 100.72 | 32.85 |  |

| SMILES | pIC50 (PDE4B2 [1]) | Cell Inhibition% @10 nM (PDE4B2 [2]) [%] | Cell Inhibition% @100 nM (PDE4B2 [2]) [%] | Cell Inhibition% @1 nM (PDE4B2 [2]) [%] | also measured |
| --- | --- | --- | --- | --- | --- |
| O=C1CCCN1c1ccc2c(c1)CCN(c1nc3c(c(NC4(CO)CCC4)n1)[S+]([O-])CC3)C2 (centres unmarked) [Compound 87] |  | 31.33 | 89.06 | 2.90 |  |
| [O-][S+]1CCc2nc(N3CCc4cc(N5CC(F)(F)C5)ccc4C3)nc(NC3(CO)CCC3)c21 (centres unmarked) [Compound 88] |  | 28.76 | 93.47 | 3.67 |  |
| [O-][S+]1CCc2nc(N3CCc4cc(F)c(F)cc4C3)nc(NC3(CO)CCC3)c21 (centres unmarked) [Compound 95] |  | 6.8 | 66.7 | -4.2 |  |
| [O-][S+]1CCc2nc(N3CCc4cc(Cl)c(F)cc4C3)nc(NC3(CO)CCC3)c21 (centres unmarked) [Compound 96] |  | 15.7 | 84.8 | -2.7 |  |
| [O-][S+]1CCc2nc(N3CCC4=C(COc5ccccc54)C3)nc(NC3(CO)CCC3)c21 (centres unmarked) [Compound 97] |  | 17.36 | 86.54 | 1.66 |  |
| Nc1nc2cc(Cl)ccc2c2c1CN(c1nc3c(c(NC4(CO)CCC4)n1)[S+]([O-])CC3)CC2 (centres unmarked) [Compound 102] |  | 35.86 | 95.46 | -0.08 |  |
| Cn1nc(Cl)c2c3c(cnc21)CN(c1nc2c(c(NC4(CO)CCC4)n1)[S+]([O-])CC2)CC3 (centres unmarked) [Compound 105] |  | 42.53 | 93.48 | 7.53 |  |
| [O-][n+]1cc2c(c3ccc(Cl)cc31)CCN(c1nc3c(c(NC4(CO)CCC4)n1)[S+]([O-])CC3)C2 (centres unmarked) [Compound 106] |  | 21.18 | 67.52 | 0.41 |  |
| [O-][S+]1CCc2nc(N3CC[C@@H]4c5ccc(F)cc5OC[C@H]4C3)nc(NC3(CO)CCC3)c21 (some centres unmarked) [Compound 109] |  | 65.40 | 97.85 | 17.70 |  |
| COc1ccc2c(c1)OC[C@H]1CN(c3nc4c(c(NC5(CO)CCC5)n3)[S+]([O-])CC4)CC[C@H]21 (some centres unmarked) [Compound 110] |  | 76.13 | 100.03 | 18.98 |  |
| [O-][S+]1CCc2nc(N3CC[C@@H]4c5ccc(C(F)(F)F)cc5OC[C@H]4C3)nc(NC3(CO)CCC3)c21 (some centres unmarked) [Compound 111] |  | 22.21 | 81.06 | 8.07 |  |
| Cc1ccc2c(c1)OC[C@H]1CN(c3nc4c(c(NC5(CO)CCC5)n3)[S+]([O-])CC4)CC[C@H]21 (some centres unmarked) [Compound 112] |  | 54.08 | 99.44 | 12.30 |  |
| [O-][S@+]1CCc2nc(N3CC[C@@H]4c5ccncc5OC[C@H]4C3)nc(NC3(CO)CCC3)c21 [Compound 113, (R)-4-((1-(hydroxymethyl)cyclobutyl)amino)-2-((6aR,10aS)-6a,9,10,10-tetrahydro-6H-pyrano[2,3-c:5,4-c']dipyridin-8(7H)-yl)-6,7-dihydrothieno[3,2-d]pyrimidine 5-oxide] |  |  |  |  | inhibition at 0.001 µM (PDE4B2 [2]): 5.01%; inhibition at 0.01 µM (PDE4B2 [2]): 22.8%; inhibition at 0.1 µM (PDE4B2 [2]): 71.9% |
| [O-][S@+]1CCc2nc(N3CC[C@H]4c5ncc(Cl)cc5OC[C@@H]4C3)nc(NC3(CO)CCC3)c21 [Compound 114, (R)-2-((6aS,10aR)-3-chloro-6a,9,10,10-tetrahydro-6H-pyrano[3,2-b:5,4-c']dipyridin-8(7H)-yl)-4-((1-(hydroxymethyl)cyclobutyl)amino)-6,7-dihydrothieno[3,2-d]pyrimidine 5-oxide] |  |  |  |  | inhibition at 0.001 µM (PDE4B2 [2]): -1.54%; inhibition at 0.01 µM (PDE4B2 [2]): 8.74%; inhibition at 0.1 µM (PDE4B2 [2]): 54.5% |
| [O-][S+]1CCc2nc(N3CC[C@@H]4c5ccc(Br)cc5OC[C@H]4C3)nc(NC3(CO)CCC3)c21 (some centres unmarked) [Compound 115] |  | 39.69 | 97.73 | 7.72 |  |
| [O-][S+]1CCc2nc(N3CC[C@H]4c5cnc(Cl)cc5OC[C@@H]4C3)nc(NC3(CO)CCC3)c21 (some centres unmarked) [Compound 117] |  | 17.32 | 61.63 | 5.32 |  |
| [O-][S@+]1CCc2nc(N3CCc4c(ccc5[nH]ncc45)C3)nc(NC3(CO)CCC3)c21 [Compound 118, (R)-4-((1-(hydroxymethyl)cyclobutyl)amino)-2-(3,6,8,9-tetrahydro-7H-pyrazolo[4,3-f]isoquinolin-7-yl)-6,7-dihydrothieno[3,2-d]pyrimidine 5-oxide] |  |  |  |  | inhibition at 0.001 µM (PDE4B2 [2]): 11.1%; inhibition at 0.01 µM (PDE4B2 [2]): 41.7%; inhibition at 0.1 µM (PDE4B2 [2]): 89% |
| [O-][S@+]1CCc2nc(N3CCc4cc(N5CCCC5)cnc4C3)nc(NC3(CO)CCC3)c21 [Compound 184, (R)-4-((1-(hydroxymethyl)cyclobutyl)amino)-2-(3-(pyrrolidin-1-yl)-5,8-dihydro-1,7-naphthyridin-7(6H)-yl)-6,7-dihydrothieno[3,2-d]pyrimidine 5-oxide] |  |  |  |  | inhibition at 0.001 µM (PDE4B2 [2]): 36.5%; inhibition at 0.01 µM (PDE4B2 [2]): 94.3%; inhibition at 0.1 µM (PDE4B2 [2]): 100% |

Reference: patent EP4678644A1, “SUBSTITUTED DIHYDROTHIENOPYRIMIDINE COMPOUND, PREPARATION METHOD THEREFOR, AND USE THEREOF” (Shanghai Yidi Biotechnology Co., Ltd., priority 2023, dated 2024)
